These results are taken from US20170266184A1 (priority 2016, published 2017).

Where two headings read alike, the source gives them in different places.

The target of data set [1] is T1, 5-HT-1A receptor (Rattus norvegicus, UniProt P19327).
T1 sequence (P19327 1-422): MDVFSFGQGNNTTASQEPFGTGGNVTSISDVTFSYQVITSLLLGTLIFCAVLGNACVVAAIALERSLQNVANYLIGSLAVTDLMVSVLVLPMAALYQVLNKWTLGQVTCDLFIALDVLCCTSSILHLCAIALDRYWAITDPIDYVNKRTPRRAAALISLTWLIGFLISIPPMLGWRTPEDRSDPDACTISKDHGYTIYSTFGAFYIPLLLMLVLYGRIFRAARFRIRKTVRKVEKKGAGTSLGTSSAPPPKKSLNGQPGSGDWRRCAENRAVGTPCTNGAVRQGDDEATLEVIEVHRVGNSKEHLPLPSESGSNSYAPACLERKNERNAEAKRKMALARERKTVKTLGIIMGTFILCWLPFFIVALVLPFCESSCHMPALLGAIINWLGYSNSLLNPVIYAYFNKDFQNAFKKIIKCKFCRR
The settings on record: subcutaneous injection; cited from earlier work.

Data set [2] has as its target T1, 5-HT-1A receptor. Also on record: host or cells: rat, whole animal (in vivo). Conditions: rats; cited from earlier work.
For data set [3], the system named is rats. Nature of the data set: Conditioned place preference (CPP) test of drug-induced reinforcement. Format: in vivo, rat. The method, then:
A three compartment conditioned place preference (CPP) apparatus with an unbiased design was used to monitor drug-induced reinforcement. The apparatus was made up of transparent plastic Perspex. The compartments were separated by sliding guillotine doors.
The end (preference) compartments (26×26×26 cm each) provided distinct contexts, with one compartment having black horizontal stripes on side walls, the other compartment had vertical black stripes. […] The experiment was conducted in three distinct phases: pre-conditioning, conditioning and post-conditioning.
An animal introduced in the CPP apparatus from the middle compartment and guillotine doors were raised to open. The animal was allowed to explore the entire apparatus for 10 min. Time spent in each compartment was recorded.
The test was carried out on day 13, one day after the last conditioning session, in a drug free state. Each animal was tested only once. As in the pre-conditioning phase, the guillotine doors were removed and rat was given access to the entire apparatus for 10 min. Time spent in ‘Drug’ assigned compartment was monitored.

For data set [4], the system named is rats.
Experimental: This phase started one day after pre-conditioning phase, animals were randomly assigned to six groups, each containing six animals: (i) buspirone 0 mg/kg+saline, (ii) buspirone 0 mg/kg+morphine, (iii) buspirone 1 mg/kg+saline, (iv) buspirone 1 mg/kg+morphine, (v) buspirone 2 mg/kg+saline and (vi) buspirone 2 mg/kg+morphine injected animals. Over next 12 days (day 1 to day 12) animals went through conditioning (one session per day) in which they were confined to either the horizontal or vertical stripe compartment by raising the respective guillotine door. On day 1, 3, 5, 7, 9 and 11 animals of all groups were injected with saline (1 ml/kg) and placed immediately in the assigned ‘Non-Drug’ compartment for 30 min. After which the animals were kept in their home cages. On every other day, i.e. day 2, 4, 6, 8, 10, and 12 control and test animals were injected with saline, buspirone and/or morphine as assigned above. Immediately after injection the animals were placed in the ‘Drug’ compartment for 30 min. The animals picked from the drug compartment were placed back in their home cages.
Motor behavior was also monitored during conditioning phase. Animals confined to a compartment were moving across the compartment. Activity scores were counted as number of cage crossings for 10 min starting 5 min post injection.
For data set [5], the system named is rats. The source holds these as a separate data set.
Experimental: After post-conditioning the challenge dose of morphine (7.5 mg/kg) was given. The hot plate test was conducted 30 min after challenge dose to measure difference in heat-induced nociception in the six groups. The latency (either jumping or hind-paw licking) and number of licks were monitored for each animal. The temperature of hot plate was kept 52° C. and cutoff time was 30 sec.
In data set [6] the test system is rats. Conditions: buspirone and apomorphine co-administered to rats; cited from earlier work.
The next data set has as its system monkeys. The settings on record: cited from earlier work.
Another data set deals with humans. The settings on record: cited from earlier work.
The subject of data set [7] is rats. Conditions: fluoxetine with morphine; cited from earlier work.
For a further data set, the system named is rhesus monkeys. The settings on record: fluoxetine with morphine; cited from earlier work.
[8] abbreviates: all three doses of morphine vs saline treated animals, FIG. 3.

With `CCCN(CCC)C1CCc2cccc(O)c2C1` (centres unmarked) [8-OH-DPAT, 8-hydroxy-N,N-dipropyl-2-aminotetralin], the Analgesic effect entry on 5-HT-1A receptor [1] is “produces an analgesic effect”. Moreover, on 5-HT-1A receptor [2], the Anti-nociceptive effects entry is “has anti-nociceptive effects”.

For the compound `O=C1CC2(CCCC2)CC(=O)N1CCCCN1CCN(c2ncccn2)CC1` [buspirone], the “Morphine-induced increases in post-conditioning time spent in drug paired compartment” value in the data set with rats [3] (buspirone 1 mg or 2 mg/kg co-administered with morphine 7.5 mg/kg, FIG. 1A) is “significantly attenuates”. Moreover, the “Reinforcing effects of morphine (calculated percentage reinforcement)” value in the data set with rats [3] (buspirone 1 mg or 2 mg/kg co-administered with morphine 7.5 mg/kg, FIG. 1B) was “do not occur”. Moreover, in the data set with rats [3] (buspirone co-injected animals), the “Reduction of addiction to morphine” value is given as “more than 90%”. In the data set on rats [4] (animals co-treated with buspirone), the “Calculated percentage psychosis like effects of morphine” value is reported as “blocked”. For the same compound, the “Psychosis like effects of morphine” value with rats [4] (co-administration of 1 mg/kg buspirone, FIG. 2B) is recorded as “blocked”; in the data set on rats [4] (co-administration of 2 mg/kg buspirone, FIG. 2B) it was “attenuated”. Also, the “Tolerance in motor depressant effects of morphine” value in the data set on rats [4] (co-treated with buspirone 1 mg/kg or 2 mg/kg, FIG. 2A) is listed as “not produced”. Moreover, in the data set on rats [5] (buspirone co-injected animals), the “Analgesic effects of morphine” value is given as “potentiated”. Moreover, the Addiction to apomorphine result in the data set with rats [6] is given as “not produced”.

For `CN(C)CCCN1c2ccccc2CCc2ccc(Cl)cc21` [clomipramine], the “Anti-nociceptive effects of opioids” value in the data set on monkeys is on record as “enhances”.

Take `CCNC(C)Cc1cccc(C(F)(F)F)c1` (centres unmarked) [fenfluramine]: in the data set with humans, the “Analgesic effects of morphine” value was “increase”.

Take `CNCCC(Oc1ccc(C(F)(F)F)cc1)c1ccccc1` (centres unmarked) [fluoxetine]: the “Anti-nociceptive effects of morphine” value in the data set on rats [7] and in the data set on rhesus monkeys was “potentiates” throughout. Further, the “Analgesic effects of morphine” value with humans is “increase”.

For `CN1CC[C@]23c4c5ccc(O)c4O[C@H]2[C@@H](O)C=C[C@H]3[C@H]1C5` [morphine], in the data set with rats [3] (morphine 7.5 mg/kg alone, repeated, FIG. 1A), the “Post-conditioning time spent in the drug paired compartment” value is given as “much higher”. For the same compound, in the data set on rats [3] (morphine 7.5 mg/kg alone, FIG. 1B), the Calculated percentage reinforcement result was “reinforcing”. The Motor activity result with rats [4] (1st and 2nd injection of morphine, FIG. 2A) is listed as “decrease”. The “Decreases in motor activity (tolerance in motor depressant effect)” value in the data set on rats [4] (3rd to 6th administration of morphine, day 6, 8, 10 and 12, FIG. 2A) is recorded as “do not occur”. In the data set on rats [4] (morphine alone, FIG. 2B), the Psychosis like effects result was “produced psychosis like effects”. The “Increase in latency time in paw licking, comparison of doses” value with rats [5] (7.5 mg/kg vs 5 mg/kg morphine, FIG. 3) is “greater at 7.5 mg/kg than 5 mg/kg”. In addition, in the data set on rats [5] (setting [8]), the “Latency time in paw licking” value is reported as “increase” and the Number of licks result is recorded as “reduced”. The “Latency time to first lick” value in the data set with rats [5] (repeated morphine treated animals, 30 min after 7.5 mg/kg morphine challenge, FIG. 4) is reported as “reduced”. In the data set with rats [5] (repeated morphine treated animals, after morphine challenge, FIG. 4), the Number of licks result is recorded as “higher”.
